Consider 13 compounds from patent US5135932A, “2-hydroxypropylamino-alkyl-benzimidazoly-5-yl derivatives and their use in the treatment of heart disease” (Dr. Karl Thomae GmbH, priority 1989, dated 1992).

Assay [1] addresses T1, β1 adreno receptor (rat hearts) (Rattus norvegicus, UniProt P18090).
T1 construct: receptor preparations from rat hearts (β1); from tissue; host or cells: rat heart membrane preparation
Put plainly: Affinity for β-adreno receptors: inhibition of 3H-CGP 12177 binding, receptor preparations from rat hearts (β1). The settings on record: 200 pM 3H-CGP 12177. How it is done: (§1) 1. Affinity for β-adreno recectors
(§2) The inhibitory effect on the binding of ^3 H-CGP 12177 was tested on receptor preparations from rat hearts (β1) and rat lungs (β2). The binding assay was carried out with some modifications according to the method of Dammgen et al. (Drug. Res. 35: 383-390 (1985)). The incubation mixture contained aliquots of the membrane preparation in Tris buffer, increasing concentrations of the potential antagonist as well as 200 pM ^3 H-CGP 12177. The bound and free radioligands were separated after the incubation period by rapid filtration through glass fibre filters. The filter-bound radioactivity was determined in a β counter with a counting yield of about 52%. The non-specific binding was determined in the presence of 10^-5 M propranolol.

Assay [2] deals with T2, β2 adreno receptor (rat lungs) (Rattus norvegicus, UniProt P10608).
T2 construct: rat lungs (β2); from tissue; host or cells: rat lung membrane preparation
As to the kind of experiment: Affinity for β-adreno receptors: inhibition of 3H-CGP 12177 binding, receptor preparations from rat lungs (β2). The settings on record: 200 pM 3H-CGP 12177. On the procedure:
as §1, §2

A short description of assay [3]: Antiadrenergic activity: shift of isoprenalin dose-activity curves in guinea-pigs (pA2). In kind it is in vivo, guinea-pig. The settings on record: averages from 2 to 3 tests; for pA2 heart rate: against heart rate-increasing activity of isoprenalin; for pA2 inotropia: against inotropic activity of isoprenalin (LV-dP/dtmax). On the procedure:
(§3) Cardiotonic effect with antiadrenergic activity
(§4) Guinea-pigs (Dunkin-Hartley-Pirbright, male, 450-600 g) were anaesthetised with hexobarbital-sodium (150 mg/kg i.p.). After the animals had become unconscious, a tracheal cannula was inserted and the animals were pitched (van Meel, J. Pharmacol. Methods 31 (1): 1-11 (1985)). The animals were then immediately artificially respirated using a breathing pump. The left ventricular pressure (LVP) was measured with a Millar PR-249 catheter-tip manometer inserted into the left ventricle through the left carotid artery. This pressure signal was differentiated electronically (LV-dP/dtmax) and used as a parameter for inotropia. The arterial blood pressure was recorded by a cannula in the right carotid artery using a Bell & Howell pressure recorder. The heart rate was also measured. The substances were administered through a cannula in the jugular vein.
(§5) The test substances were administered to three animals cumulatively in four doses (0.1 to 3 mg/kg) and the effects on blood pressure, heart rate and LV-dP/dtmax were measured. Three minutes after the last dose of the test substance, isoprenalin was administered intravenously in increasing doses. In this way, a cumulative dose-activity correlation was obtained for isoprenalin in the presence of the test substance. The parameters measured were the increase in heart rate and the LV-dP/dtmax. These dose-activity curves were compared with standard curves for isoprenalin without the test substances. The shift to the right of the dose-activity curves for isoprenalin brought about by the test substances were determined graphically and corresponding pA2 values for the test substances were calculated. (see Tenakin in "Pharmacologic Analysis of Drug Receptor Interaction", Rawen Press 1987, pages 211-212).
(§6) The Table which follows contains the averages from 2 to 3 tests: […]

The subject of assay [4] is Guinea-pigs (Dunkin-Hartley-Pirbright, male). Put plainly: Cardiotonic effect: LV-dP/dtmax and heart rate in anaesthetised guinea-pigs. The class given is in vivo, guinea-pig. The settings on record: after a dose of 3 mg/kg i.v., averages from 2 to 3 tests; for change in vivo at 3 mg/kg: Cavia porcellus, iv, read-out: Effects on LV-dP/dtmax % increase. On the procedure:
as §3, §4, §5, §6

T1 sequence (P18090 whole entry): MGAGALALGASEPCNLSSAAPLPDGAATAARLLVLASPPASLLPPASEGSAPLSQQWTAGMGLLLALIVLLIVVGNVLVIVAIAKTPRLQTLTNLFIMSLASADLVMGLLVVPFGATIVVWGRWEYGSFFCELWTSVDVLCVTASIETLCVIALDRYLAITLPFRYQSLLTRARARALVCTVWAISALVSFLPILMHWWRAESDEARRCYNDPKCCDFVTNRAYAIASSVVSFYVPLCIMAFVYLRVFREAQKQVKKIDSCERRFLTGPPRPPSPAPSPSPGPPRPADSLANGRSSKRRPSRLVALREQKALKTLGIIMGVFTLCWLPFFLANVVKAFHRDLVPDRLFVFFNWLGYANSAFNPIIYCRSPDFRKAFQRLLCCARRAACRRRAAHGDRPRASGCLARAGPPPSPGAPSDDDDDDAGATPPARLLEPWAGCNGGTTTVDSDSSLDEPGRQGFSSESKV
T2 sequence (P10608 whole entry): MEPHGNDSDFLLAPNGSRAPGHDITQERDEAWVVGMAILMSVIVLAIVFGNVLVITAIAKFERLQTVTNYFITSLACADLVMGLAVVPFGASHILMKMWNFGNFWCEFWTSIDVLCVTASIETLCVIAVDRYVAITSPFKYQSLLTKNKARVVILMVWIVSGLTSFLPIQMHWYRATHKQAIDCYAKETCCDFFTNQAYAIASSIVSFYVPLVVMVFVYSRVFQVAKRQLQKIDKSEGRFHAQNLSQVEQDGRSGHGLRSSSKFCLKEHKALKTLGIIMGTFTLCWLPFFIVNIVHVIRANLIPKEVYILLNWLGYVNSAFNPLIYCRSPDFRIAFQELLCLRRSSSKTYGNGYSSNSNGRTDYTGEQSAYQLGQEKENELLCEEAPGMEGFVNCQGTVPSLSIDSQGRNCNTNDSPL

With `CC(C)COCCc1ccc(OCC(O)CNC(C)(C)Cn2cnc3cc(C4=NNC(=O)CC4)ccc32)cc1` (centres unmarked) [Substance I, 6-[1-[2-[3-(4-(2-isobutoxyethyl)phenoxy)-2-hydroxypropylamino]-2,2-dimethyl-ethyl]benzimidazol-5-yl]-4,5-dihydro-3(2H)-pyridazinone], the IC50 in assay [1] is 12 nM. Further, the IC50 in assay [2] is 65 nM. Besides, in assay [3], the pA2 heart rate came out at 7.89 and the pA2 inotropia was determined as 7.17. Besides, in assay [4], the change in vivo at 3 mg/kg turned out to be 58% and the “Effect on heart rate in beats per minute” value was -59 beats per minute.

With `O=C1CCC(c2ccc(OCCNCC(O)COc3ccc(CCOCC4CCC4)cc3)cc2)=NN1` (centres unmarked) [Substance E, 6-[4-[2-[3-(4-(2-cyclobutylmethoxy-ethyl)phenoxy)-2-hydroxy-propylamino]ethoxy]phenyl]-4,5-dihydro-3(2H)-pyridazinone], the IC50 in assay [1] stood at 15 nM. Moreover, the IC50 in assay [2] is 1100 nM. In assay [3], the pA2 heart rate was 7.23 and the pA2 inotropia is listed as 6.19. Further, in assay [4], the change in vivo at 3 mg/kg came to 49% and the “Effect on heart rate in beats per minute” value is listed as -71 beats per minute.

`O=C1CCC(c2ccc3c(c2)ncn3CCNCC(O)COc2ccc(CCOCC3CCC3)cc2)=NN1` (centres unmarked) [Substance A, 6-[1-[2-[3-(4-(2-cyclobutylmethoxy-ethyl)phenoxy)-2-hydroxy-propylamino]ethyl]benzimidazol-5-yl]-4,5-dihydro-3(2H)-pyridazinone] gave an IC50 in assay [1] of 26 nM. In assay [2], the IC50 was found to be 940 nM. Also, in assay [3], the pA2 heart rate is listed as 8.20 and the pA2 inotropia was found to be 6.30. Besides, in assay [4], the change in vivo at 3 mg/kg is 50% and the “Effect on heart rate in beats per minute” value is -23 beats per minute.

`CC(C)OCCOCc1ccc(OCC(O)CNCCOc2ccc(C3=NNC(=O)CC3)cc2Cl)cc1` (centres unmarked) [Substance L, 6-[4-[2-[3-(4-(2-isopropoxyethoxy-methyl)phenoxy)-2-hydroxy-propylamino]ethoxy]-3-chloro-phenyl]-4,5-dihydro-3(2H)-pyridazinone] had a 50% inhibitory concentration (IC50) in assay [1] of 7.6 nM. In addition, the 50% inhibitory concentration (IC50) in assay [2] was 600 nM. For the same compound, in assay [3], the pA2 heart rate came out at 6.77 and the pA2 inotropia stood at 6.23. Also, in assay [4], the change in vivo at 3 mg/kg was 66% and the “Effect on heart rate in beats per minute” value is listed as -51 beats per minute.

Regarding `Cc1cc(C2=NNC(=O)CC2)ccc1OCCCNCC(O)COc1ccc(CCOCC2CCC2)cc1` (centres unmarked) [Substance P, 6-[4-[3-[3-(4-(2-cyclobutylmethoxy-ethyl)phenoxy)-2-hydroxy-propylamino]propoxy]-3-methyl-phenyl]-4,5-dihydro-3(2H)-pyridazinone], the IC50 in assay [1] is 6 nM. In addition, the IC50 in assay [2] is 220 nM. Also, in assay [3], the pA2 heart rate is listed as 6.45 and the pA2 inotropia is recorded as 5.31. Also, in assay [4], the change in vivo at 3 mg/kg stood at 69% and the “Effect on heart rate in beats per minute” value is recorded as -61 beats per minute.

In turn, `Cc1cc(C2=NNC(=O)CC2)ccc1OCCNCC(O)COc1ccc(CCOCC2CC2)cc1` (centres unmarked) [Substance M, 6-[4-[2-[3-(4-(2-cyclopropylmethoxy-ethyl)phenoxy)-2-hydroxy-propylamino]ethoxy]-3-methyl-phenyl]-4,5-dihydro-3(2H)-pyridazinone] had an IC50 in assay [1] of 0.5 nM. In assay [2], this compound gave an IC50 of 100 nM. Further, in assay [3], the pA2 heart rate is 8.20 and the pA2 inotropia is reported as 7.05. Moreover, in assay [4], the change in vivo at 3 mg/kg came out at 51% and the “Effect on heart rate in beats per minute” value was -64 beats per minute.

For `Cc1cc(-c2ccc(=O)[nH]n2)ccc1OCCNCC(O)COc1ccc(COCCOC(C)C)cc1` (centres unmarked) [Substance Q, 6-[4-[2-[3-(4-(2-isopropoxyethoxy-methyl)phenoxy)-2-hydroxy-propylamino]ethoxy]-3-methyl-phenyl]-3(2H)-pyridazinone], the results for the IC50 in assay [1] and in assay [2] were 2 nM and 210 nM, respectively.

Consider `O=c1ccc(-c2ccc(OCCNCC(O)COc3ccc(CCOCC4CC4)cc3)cc2)n[nH]1` (centres unmarked) [Substance D, 6-[4-[2-[3-(4-(2-cyclopropylmethoxyethyl)phenoxy)-2-hydroxy-propylamino]ethoxy]phenyl]-3(2H)-pyridazinone], for which the IC50 in assay [1] worked out at 22 nM. The compound also showed an IC50 in assay [2] of 1000 nM. For the same compound, in assay [3], the pA2 heart rate is 7.24 and the pA2 inotropia was found to be 6.67. Besides, in assay [4], the change in vivo at 3 mg/kg amounted to 51% and the “Effect on heart rate in beats per minute” value is listed as -49 beats per minute.

`CC(C)OCCOCc1ccc(OCC(O)CNCCOc2ccc(-c3ccc(=O)[nH]n3)cc2)cc1` (centres unmarked) [Substance G, 6-[4-[2-[3-(4-(2-isopropoxyethoxymethyl)phenoxy)-2-hydroxypropylamino]ethoxy]phenyl]-3(2H)-pyridazinone] returned an IC50 in assay [1] of 53 nM. The IC50 in assay [2] was 4400 nM. Further, in assay [3], the pA2 heart rate came out at 6.38 and the pA2 inotropia worked out at 6.32. In addition, in assay [4], the change in vivo at 3 mg/kg worked out at 38% and the “Effect on heart rate in beats per minute” value is -36 beats per minute.

On to `O=C1CCC(c2ccc3c(c2)ncn3CCNCC(O)COc2ccc(CCOCC3CC3)cc2)=NN1` (centres unmarked) [Substance B, 6-[1-[2-[3-(4-(2-cyclopropylmethoxy-ethyl)phenoxy)-2-hydroxy-propylamino]ethyl]benzimidazol-5-yl]-4,5-dihydro-3(2H)-pyridazinone], for which, in assay [1], the IC50 came out at 34 nM. Also, the IC50 in assay [2] turned out to be 2300 nM. For the same compound, in assay [3], the pA2 heart rate is reported as 6.95 and the pA2 inotropia is reported as 6.83. In assay [4], the change in vivo at 3 mg/kg stood at 51% and the “Effect on heart rate in beats per minute” value is -47 beats per minute.

`CC(C)OCCOCc1ccc(OCC(O)CNCCCOc2ccc(C3=NNC(=O)CC3)cc2Cl)cc1` (centres unmarked) [Substance K, 6-[4-[3-[3-(4-(2-isopropoxyethoxy-methyl)phenoxy)-2-hydroxy-propylamino]propoxy]-3-chloro-phenyl]-4,5-dihydro-3(2H)-pyridazinone]: the IC50 in assay [1] was found to be 10 nM. Also, in assay [2], the IC50 came to 350 nM. In addition, in assay [3], the pA2 heart rate was determined as 7.52 and the pA2 inotropia was 6.56. Moreover, in assay [4], the change in vivo at 3 mg/kg is 11% and the “Effect on heart rate in beats per minute” value is -121 beats per minute.

In assay [1], `O=C1CCC(c2ccc(OCCNCC(O)COc3ccc(CCOCC4CC4)cc3)cc2)=NN1` (centres unmarked) [Substance C, 6-[4-[2-[3-(4-(2-cyclopropylmethoxy-ethyl)phenoxy)-2-hydroxy-propylamino]ethoxy]phenyl]-4,5-dihydro-3(2H)-pyridazinone] had an IC50 of 29 nM. The IC50 in assay [2] came to 1200 nM. Also, in assay [3], the pA2 heart rate is 7.22 and the pA2 inotropia is 6.76. Further, in assay [4], the change in vivo at 3 mg/kg turned out to be 25% and the “Effect on heart rate in beats per minute” value is on record as -51 beats per minute.

For the compound `Cc1cc(C2=NNC(=O)CC2)ccc1OCCCNCC(O)COc1ccc(CCOCC2CC2)cc1` (centres unmarked) [Substance O, 6-[4-[3-[3-(4-(2-cyclopropylmethoxy-ethyl)phenoxy)-2-hydroxy-propylamino]propoxy]-3-methyl-phenyl]-4,5-dihydro-3(2H)-pyridazinone], in assay [1], the IC50 was determined as 59 nM. In assay [2], this compound displayed a half-maximal inhibitory concentration (IC50) of 66 nM. In addition, in assay [3], the pA2 heart rate is on record as 7.70 and the pA2 inotropia is 6.44. Moreover, in assay [4], the change in vivo at 3 mg/kg was 38% and the “Effect on heart rate in beats per minute” value is -116 beats per minute.
